{"source": "patent US6682740B1", "about": "(Yeda Research and Development Co. Ltd., priority 1997, dated 2004)", "key": {"RBL-2H3 cells [1]": {"tested_on": "RBL-2H3 cells", "test": "Inhibition of antigen-induced (IgE-mediated) β-hexosaminidase secretion by RBL-2H3 cells", "assay_type": "cell-based, rat", "conditions": "for inhibition of antigen-induced / IgE-dependent degranulation (β-hexosaminidase release): RBL-2H3 cells, result in words", "experimental": "Cells. Rat mucosal mast cells, subline RBL-2H3 (Barsumian et al, 1981) were maintained in Eagle's MEM with Earle's salts supplemented by 10% FCS, 2 mM glutamine and antibiotics in a humidified atmosphere with 7% CO2 at 37° C. Secretory Response of Mast Cells. Mediator secretion by mast cells in response to stimulation by FcεRI clustering was monitored by measuring the activity of the granular enzyme β-hexosaminidase. DNP-specific murine IgE mAb, A2 (3 μl ascites) was added to 10^6 cells in 10 ml MEM and incubated in 96-well plates (100 μl suspension/well) for 2 h. Then, monolayers were washed three times with Tyrode's buffer and stimulated with the antigen (DNP11-BSA). […] Following incubation at 37° C. for 1 h, 20 μl of supernatants were taken and incubated with 50 μl of substrate solution (1.3 mg/ml p-nitrophenyl-N-acetyl-β-D-glucosamine in 0.1 M sodium citrate, pH 4.5) at 37° C. for 45 min. The reaction was terminated by the addition of 150 μl of 0.2 M glycine, pH 10.7, and the optical density of the samples was measured at 405 nm. Results of one representative experiment out of four yielding similar results are presented as percent of the total cell content of the enzyme minus the basal secreted activity. […] Degranulation of the cells was monitored by measuring the activity of the enzyme β-hexosaminidase released into the supernatants after stimulation for 1 h at 37° C. and are presented as net percentages of the cells' total β-hexosaminidase activity."}, "[2]": {"molecular_target": "T1, FcεRI molecules on RBL-2H3 cells (Rattus norvegicus, UniProt P12371+P13386)", "T1 construct": "targeting FcεRI molecules on RBL-2H3 cells; endogenous in cells; host or cells: RBL-2H3", "T1 sequence (P12371 24-245)": "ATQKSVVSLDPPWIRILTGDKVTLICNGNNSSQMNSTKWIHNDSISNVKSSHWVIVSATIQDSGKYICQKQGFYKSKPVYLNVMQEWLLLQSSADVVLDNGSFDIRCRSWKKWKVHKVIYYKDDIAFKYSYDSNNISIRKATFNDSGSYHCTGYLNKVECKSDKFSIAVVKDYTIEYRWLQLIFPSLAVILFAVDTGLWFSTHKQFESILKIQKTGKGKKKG", "T1 sequence (P13386 1-243)": "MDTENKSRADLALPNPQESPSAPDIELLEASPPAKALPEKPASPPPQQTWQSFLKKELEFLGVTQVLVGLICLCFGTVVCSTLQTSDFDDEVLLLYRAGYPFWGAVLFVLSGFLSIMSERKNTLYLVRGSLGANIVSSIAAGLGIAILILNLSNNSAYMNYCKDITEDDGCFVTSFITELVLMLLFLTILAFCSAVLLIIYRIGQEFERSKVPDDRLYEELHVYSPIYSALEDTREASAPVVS", "T1 sequence (P20411 19-86 partner)": "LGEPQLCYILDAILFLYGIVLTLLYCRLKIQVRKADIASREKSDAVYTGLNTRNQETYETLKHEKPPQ", "test": "Homo-FRET between FITC-IgE and TRITC-IgE on RBL-2H3 cells (flow cytometry)", "assay_type": "cell-based", "conditions": "dE = (E/E[control] − 1) × 100; for dE % (Dose 1): Dose 1: C3a 30 μM, C3a2 110 μM, C3a5 110 μM, C3a9 290 μM, C3a14-P 250 μM; for dE % (Dose 2): Dose 2: C3a 70 μM, C3a2 270 μM, C3a5 270 μM, C3a9 670 μM, C3a14-P 630 μM", "experimental": "The Forster-type resonance energy transfer between FITC-IgE and TRITC-IgE targeting FcεRI molecules on RBL-2H3 cells was measured (at 1:1 donor-acceptor ratio) by flow cytometry using a BectonDickinson FACStar Plus flow cytometer."}, "[3]": {"tested_on": "Ovalbumin-Sensitized Guinea Pig Model", "test": "Anaphylactic shock in ovalbumin-sensitized guinea pig model (death, respiratory parameters)", "assay_type": "in vivo", "conditions": "except for transient changes in respiratory parameters", "protocol": "Guinea pigs (GPs), weighing 350-400 g (from Charles River, GB) were sensitized to rabbit anti-chicken egg albumin (Sigma) by i.p. injection (0.6 mg/kg, using a solution of 1.5 mg/ml in DDW). Twenty-four hours following sensitization, GPs were challenged with inhaled aerosol of chicken ovalbumin (Sigma). The aerosol was generated from an aqueous solution of 25 mg/ml and aerosolized with air 24 l/min. Exposure duration was 1-3 min, according to the required dose. […] During the challenge the GPs were restrained in plethysmographs and their tidal volume, minute volume and respiration rate parameters were monitored. The GPs that received pretreatment with tire mast cell inhibitor C3a9 treated with aerosolized C3a9 peptide (a solution of 0.25 mg/ml, aerosolized with air 24 l/min and treated for 10 min.). The treatment ended 5 min before the challenge with OA. It is estimated that under these conditions each GP inhaled about 7 μg of the peptide. Respiratory parameters of the animals were further monitored for 10 min post challenge.\nEight GPs were tested in each group."}, "[4]": {"tested_on": "IgE-TRITC on RBL-2H3 cells", "test": "FRET between C3a14-P-FITC and IgE-TRITC on RBL-2H3 cells", "assay_type": "binding, rat"}, "RBL-2H3 cells [5]": {"tested_on": "RBL-2H3 cells", "test": "Binding of FITC-labeled C3a14-P to RBL-2H3 cells", "parameters": "species or system rat", "conditions": "for binding to RBL-2H3 cells: various concentrations, measured after washing / flow cytometry", "experimental": "(§1) This supports proximity between the FcεR (IgE receptor) and the peptide.\nRBL-2H3 cells were incubated with the peptide at various concentrations and binding was measured after washing the cells."}, "BMMC": {"tested_on": "BMMC", "test": "Binding of FITC-labeled C3a14-P to BMMC (flow cytometry)", "parameters": "species or system mouse", "conditions": "results not shown", "text": "as §1"}, "[6]": {"molecular_target": "RBL-2H3 cells (rat mucosal mast cells), binding partner on the cell surface not identified", "test": "fluorescence of washed RBL-2H3 cells, peptide dose 630 µM"}, "[7]": {"molecular_target": "RBL-2H3 cells (rat mucosal mast cells), binding partner on the cell surface not identified", "test": "fluorescence of washed RBL-2H3 cells, peptide dose 510 µM"}, "[8]": {"molecular_target": "RBL-2H3 cells (rat mucosal mast cells), binding partner on the cell surface not identified", "test": "fluorescence of washed RBL-2H3 cells, peptide dose 250 µM"}, "RBL-2H3 cells [9]": {"tested_on": "RBL-2H3 cells", "conditions": "earlier experiments, cited from earlier work"}}, "note": "Residues, ends and D or L forms follow the SMILES beside them. No end group written: not given here.", "data": [{"molecule": "SVQLTEKRMDKVGKYPKELR [C3a1, reference compound]", "values": [{"measurement": "inhibition of antigen-induced / IgE-dependent degranulation (β-hexosaminidase release)", "setting": "RBL-2H3 cells [1]", "value": "had no effect at all"}]}, {"molecule": "Cys-Cys-Asn-Tyr-Gly (CCNYG; not fully specified; printed: Cys-Cys-Asn-Tyr-Gly) [C3a13]", "values": [{"measurement": "inhibition of antigen-induced / IgE-dependent degranulation (β-hexosaminidase release)", "setting": "RBL-2H3 cells [1]", "value": "inhibit IgE-dependent degranulation of RBL-2H3 cells to a similar extent as did C3a2"}]}, {"molecule": "CNYITELRRQHARASHLGLAR [C3a2]", "values": [{"measurement": "inhibition of antigen-induced / IgE-dependent degranulation (β-hexosaminidase release)", "setting": "RBL-2H3 cells [1]", "value": "inhibited in a dose-dependent manner"}, {"measurement": "secretory response when only the peptide was added", "setting": "RBL-2H3 cells [1]; peptide alone, same range of concentrations, no antigen", "value": "No secretory response"}, {"measurement": "dE % (Dose 1)", "setting": "[2]", "value": "−101", "unit": "%"}, {"measurement": "dE % (Dose 2)", "setting": "[2]", "value": "−130", "unit": "%"}]}, {"molecule": "KKVFLDCCNYITELRRQHAR [C3a5]", "values": [{"measurement": "dE % (Dose 1)", "setting": "[2]", "value": "−65", "unit": "%"}, {"measurement": "dE % (Dose 2)", "setting": "[2]", "value": "−78", "unit": "%"}]}, {"molecule": "CC[C@H](C)[C@H](NC(=O)[C@H](Cc1ccc(O)cc1)NC(=O)[C@H](CC(N)=O)NC(=O)[C@H](CS)NC(=O)[C@H](CS)NC(=O)[C@@H](N)CC(=O)O)C(=O)N[C@H](C(=O)N[C@@H](CCCNC(=N)N)C(N)=O)[C@@H](C)O", "note": "[C3a9] (H-DCCNYITR-NH2)", "values": [{"measurement": "effect of the C3a9 aerosol treatment itself on GPs (respiratory parameters)", "setting": "[3]", "value": "not affected by the treatment"}, {"measurement": "dE % (Dose 1)", "setting": "[2]", "value": "−64", "unit": "%"}, {"measurement": "dE % (Dose 2)", "setting": "[2]", "value": "−67", "unit": "%"}]}, {"molecule": "DSSNYIR [C3a11, Asp-Ser-Ser-Asn-Tyr-Ile-Arg]", "values": [{"measurement": "inhibition of antigen-induced / IgE-dependent degranulation (β-hexosaminidase release)", "setting": "RBL-2H3 cells [1]", "value": "inhibit IgE-dependent degranulation of RBL-2H3 cells to a similar extent as did C3a2"}]}, {"molecule": "C3a14-P-FITC: FITC-labeled peptide C3a14-P (DSSNYITR; also: FITC label, position not given here)", "values": [{"measurement": "FRET Efficiency E (%)", "setting": "[4]; cells incubated with amount 20 of C3a14-P-FITC (unit not given)", "value": 33, "unit": "%"}, {"measurement": "FRET Efficiency E (%)", "setting": "[4]; cells incubated with amount 40 of C3a14-P-FITC (unit not given)", "value": 17, "unit": "%"}, {"measurement": "FRET Efficiency E (%)", "setting": "[4]; cells incubated with amount 60 of C3a14-P-FITC (unit not given)", "value": 9, "unit": "%"}, {"measurement": "Fluorescence Mean (w/o background)", "setting": "RBL-2H3 cells [5]; peptide dose 250 μM", "value": 25}, {"measurement": "Fluorescence Mean (w/o background)", "setting": "RBL-2H3 cells [5]; peptide dose 510 μM", "value": 74}, {"measurement": "Fluorescence Mean (w/o background)", "setting": "RBL-2H3 cells [5]; peptide dose 630 μM", "value": 157}, {"measurement": "binding to RBL-2H3 cells", "setting": "RBL-2H3 cells [5]; listed as FITC-15 labeled C3a14-P", "value": "showed binding"}, {"measurement": "binding to RBL-2H3 cells", "setting": "RBL-2H3 cells [5]; listed as FITC-Labeled C3a14-P", "value": "specific binding, but no saturation is reached"}, {"measurement": "binding to BMMC", "setting": "BMMC", "value": "showed binding"}]}, {"molecule": "DSSNYITR [C3a14-P]", "values": [{"measurement": "dE % (Dose 1)", "setting": "[2]", "value": "−72", "unit": "%"}, {"measurement": "dE % (Dose 2)", "setting": "[2]", "value": "−97", "unit": "%"}]}, {"molecule": "DSSNYITR-NH2 (also: FITC-labeled, position of label not given here)", "note": "[FITC-labeled C3a14-P]", "values": [{"measurement": "Fluorescence Mean (w/o background)", "setting": "[6]", "value": 157}, {"measurement": "Fluorescence Mean (w/o background)", "setting": "[7]", "value": 74}, {"measurement": "Fluorescence Mean (w/o background)", "setting": "[8]", "value": 25}]}, {"molecule": "C5a: complement-derived peptide C5a (protein, UniProt P01031 678-751, looked up, C5a anaphylatoxin) C5a anaphylatoxin: TLQKKIEEIAAKYKHSVVKKCCYDGACVNNDETCEQRAARISLGPRCIKAFTECCVVASQLRANISHKDMQLGR", "values": [{"measurement": "secretory response when added alone", "setting": "RBL-2H3 cells [9]; peptide alone (Erdei et al, 1995)", "value": "none of the complement-peptides C3a and C5a triggered the secretory response"}, {"measurement": "inhibition of antigen-induced degranulation of RBL-2H3", "setting": "RBL-2H3 cells [9]; range of human C3a concentrations (Erdei et al, 1995)", "value": "had no effect at all"}]}]}
